# According to patent US10525069B2, “Treatment of urinary tract infection” (BIOMEDICALS SWEDEN AB, priority 2014, dated 2020):
# Test system: UTI
# Assay: Clinical course of UTI (occurrence, relapse, symptoms) in treated women
# Assay type: in vivo, human
# Details: Example 4: person, antibiotic received twice, before treatment with the composition
# Method: One wheelchair-bound person, with recurrent UTI (UTI every week) was treated according to an embodiment of the invention. Prior to the treatment, the urine of the person was tested using bacteria test strips (NITRISTIC®, RAERAD Products, Sweden) following the instructions from the manufacturer. […] The person was given a composition with 1 g calcium carbonate (pH-KALK, pH Balans AB, Sweden) together with 2 g D-mannose (DM, BECKMAN-KENKO GMBH, Germany) or 1 g citric acid (SANTA MARIA AB, Sweden) together with 2 g D-mannose (DM, BECKMAN-KENKO GMBH, Germany). The compositions were taken in an alternating administration pattern 5 times per day (see Table 2 for details). The initial treatment lasted for 4 days. […] After the initial treatment, the person continued with the treatment to prevent UTI according to Table 2 alternating pH three times a day for five months. […] After discontinuing the treatment, the person relapsed with UTI within 3 weeks.
# Prior to the treatment, the urine was tested using bacteria test strips (NITRISTIC®, RAERAD Products, Sweden) following the instructions from the manufacturer.
# The person was then treated according to an embodiment of the invention (see Table 4 for details). […] Furthermore the bacteria test strips were negative.
compound,measurement,value
CC(C)(C)C(=O)OCOC(=O)[C@@H]1N2C(=O)[C@@H](/N=C/N3CCCCCC3)[C@H]2SC1(C)C [SELEXID],result of antibiotic treatment against UTI,no apparent results
